Source: paper PMC3293837, “Biophysical Property and Broad Anti-HIV Activity of Albuvirtide, a 3-Maleimimidopropionic Acid-Modified Peptide Fusion Inhibitor” (PLoS ONE, 2012)

Tests used:
[1] = system: HIV-1HXB2 Env-mediated cell-cell membrane fusion (TZM-bl / HL2/3 cells); conditions: read-out: IC50, Env-mediated cell-cell fusion; TZM-bl with HL2/3 cells, 6 h, 37°C, luciferase; three independent experiments
Experimental: Cell fusion was monitored using a reporter gene assay based on activation of HIV LTR-driven luciferase cassette in TZM-bl (Target) cells by HIV-1 tat from the HL2/3 (Effector) cells. Briefly, the TZM-bl cells were plated in 96-well clusters (2×10^4 per well) and incubated at 37°C overnight. […] Luciferase activity was measured using luciferase assay regents (Promega, Medison, WI) and a Luminescence Counter (Promega) according to the manufacture's instructions. Background luminescence in TZM-bl cells was determined without addition of HL2/3 cells.

[2] = system: HIV-1NL4-3 I37T pseudovirus; assay type: cell-based; conditions: HIV-1NL4-3 I37T; TZM-bl, 48 h; mean ± SD of three independent experiments
Experimental: HIV-1 pseudoviruses were generated as described previously [32], [55]–[56]. Briefly, 293T cells (5×10^6 cells in 15 ml of growth medium in a T-75 culture flask) were cotransfected with 10 µg of an Env-expressing plasmid and 20 µg of a backbone plasmid pSG3deltaEnv that encodes Env-defective, luciferase-expressing HIV-1 genome using Lipofectamine 2000 reagent (Invitrogen). Pseudovirus-containing culture supernatants were harvested 48 hours after transfection and filtered by 0.45-mm pore size, and stored at −80°C in 1-ml aliquots until use. The 50% tissue culture infectious dose (TCID50) of a single thawed aliquot of each pseudovirus batch was determined in TZM-bl cells. […] Briefly, the peptides were prepared with ten series dilutions in a 3-fold stepwise manner and mixed with 100 TCID50 viruses and incubated 1 hour at room temperature. The mixture was added to TZM-bl cells (10^4/well) and incubation at 37°C for 48 hours. Luciferase activity was measured using luciferase assay regents (Promega, Medison, WI) and a Luminescence Counter (Promega) according to the manufacture's instructions.

enfuvirtide was tested, and the IC50 [1] was 56.2 nM and the IC50 [2] was 300 ± 55.1 nM.
